US10358451B2, “Heterocycles useful as IDO and TDO inhibitors” (Hangzhou Innogate Pharma Co., Ltd., priority 2015, dated 2019)

Assays:
human IDO enzyme (IDO1) = human IDO enzyme (IDO1) (Homo sapiens (Human), UniProt P14902); test: IDO1 enzyme assay; assay type: biochemical; settings: for inhibition at 0.5 µM: read-out: IDO1 (inhibition % at 500 nM)
Protocol: The compounds were initially prepared in DMSO at 10 mM, then diluted in MES buffer to desired concentration. […] The mixture was centrifuged for 1 minute, then pre-incubated at room temperature for 30 minutes. […] The resulting reaction mixture was incubated at 25° C. for 40 minutes. The reaction was terminated by adding 50 ul of 30% (w/v) trichloroacetic acid. The sample was further incubated for 30 min at 60° C. and centrifuged at 2000 rpm for 5 min to remove precipitated protein. The supernatant was used to mix with an equal volume of Ehrlich's reagent (2% w/v p-dimethylaminobenzaldehyde in glacial acetic acid), then mixture was incubated at room temperature for 10 minutes. OD value was read at 490 nm in a spectrophotometer.
wherein High control=no compound; Low control=no enzyme and no compound.
IC50 values were calculated by fitting the doseresponse curves with Xlfit excel add-in version 4.3.1.

human TDO enzyme = human TDO enzyme (Homo sapiens (Human), UniProt P48775); test: TDO enzyme assay; assay type: biochemical; settings: for inhibition at 1 µM: read-out: TDO (inhibition % at 1000 nM)
Sequence of human TDO enzyme (P48775 whole entry): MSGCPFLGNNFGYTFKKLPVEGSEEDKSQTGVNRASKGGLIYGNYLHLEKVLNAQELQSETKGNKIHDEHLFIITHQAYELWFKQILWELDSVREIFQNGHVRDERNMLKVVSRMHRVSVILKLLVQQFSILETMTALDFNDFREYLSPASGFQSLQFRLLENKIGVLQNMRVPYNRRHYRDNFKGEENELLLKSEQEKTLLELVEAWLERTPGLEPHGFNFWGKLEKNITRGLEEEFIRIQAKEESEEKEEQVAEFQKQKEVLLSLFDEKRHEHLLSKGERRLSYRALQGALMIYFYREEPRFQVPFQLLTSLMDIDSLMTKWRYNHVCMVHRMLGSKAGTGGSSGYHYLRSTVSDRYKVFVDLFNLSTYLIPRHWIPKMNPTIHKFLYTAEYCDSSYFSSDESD
Protocol: In vitro TDO enzymatic activity was determined in a mixture of 50 mM potassium phosphate buffer, pH 6.5; 200 nM human TDO enzyme, 300 μM L-Tryptophan, 0.2 mg/mL Catalase, 20 mM ascorbic Acid and 20 μM Methylene Blue. 100× compounds were prepared in DMSO from 1 mM, then diluted three fold, 8 doses in total. 2 μL compounds were added to 96 well plate, followed by addition of 100 μL 400 nM TDO and 0.4 mg/ml catalase in each well. The mixture was centrifuged for 1 minute, then pre-incubated at room temperature for 10 minutes. The reaction was started by the addition of 100 μL mixture of 600 μM L-Tryptophan, 40 μM methylene blue and 40 mM ascorbic acid in 50 mM potassium phosphate buffer, pH 6.5. […] Copy slope data from Synergy program, and convert slope values to inhibition values. Percent inhibition=(max−conversion)/(max−min)*100. “max” stands for high control; “min” stands for low control. Fit the data in GraphPad Prism5.0 to obtain IC50 values. Equation used is: Y=Bottom+(Top−Bottom)/(1+10^((Log IC50−X)*HillSlope).

Sequence of human IDO enzyme (IDO1) (P14902 whole entry): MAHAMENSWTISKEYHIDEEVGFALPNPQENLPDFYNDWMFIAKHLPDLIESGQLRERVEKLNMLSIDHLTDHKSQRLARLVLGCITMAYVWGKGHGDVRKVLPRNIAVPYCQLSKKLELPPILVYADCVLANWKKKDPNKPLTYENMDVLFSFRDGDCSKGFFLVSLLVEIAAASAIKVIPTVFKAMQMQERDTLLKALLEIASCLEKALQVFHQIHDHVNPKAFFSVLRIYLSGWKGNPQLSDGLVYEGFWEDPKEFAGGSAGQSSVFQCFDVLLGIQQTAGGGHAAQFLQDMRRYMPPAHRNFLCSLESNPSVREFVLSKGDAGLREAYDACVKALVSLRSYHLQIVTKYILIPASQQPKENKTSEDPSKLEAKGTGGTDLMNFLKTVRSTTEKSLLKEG

Question: Which inhibition at 0.5 µM (human IDO enzyme (IDO1)) does the source give for `FC(F)(CC1c2ccccc2-c2cncn21)C1CCCCC1` (stereo not shown) [Compound 6, 5-(2-cyclohexyl-2,2-difluoroethyl)-5H-imidazo[5,1-a]isoindole] here?
Answer: > 50%

Question: What about the inhibition at 1 µM (human TDO enzyme) of the same molecule?
Answer: > 50%

Question: `OC(CC1c2ccccc2-c2cncn21)C1CCN(C2CC2)CC1` (stereo not shown) [Compound 3, 1-(1-cyclopropylpiperidin-4-yl)-2-(5H-imidazo[5,1-a]isoindol-5-yl)ethanol] was tested. Which inhibition at 1 µM (human TDO enzyme) did it give?
Answer: > 50%

Question: How did the inhibition at 0.5 µM (human IDO enzyme (IDO1)) turn out when `OC(CC1c2ccccc2-c2cncn21)C1CCN(c2ccc(C(F)(F)F)cc2)CC1` (stereo not shown) [Compound 8, 2-(5H-imidazo[5,1-a]isoindol-5-yl)-1-(1-(4-(trifluoromethyl)phenyl)piperidin-4-yl)ethanol] was run?
Answer: > 50%

Question: What about the inhibition at 1 µM (human TDO enzyme) of the same molecule?
Answer: > 50%

Question: `O=[N+]([O-])c1ccccc1N1CCC(C(O)CC2c3ccccc3-c3cncn32)CC1` (stereo not shown) [Compound 7, 2-(5H-imidazo[5,1-a]isoindol-5-yl)-1-(1-(2-nitrophenyl)piperidin-4-yl)ethanol] was tested. Which inhibition at 0.5 µM (human IDO enzyme (IDO1)) did it give?
Answer: > 50%

Question: `OC(CC1c2c(F)cccc2-c2cncn21)C12CC3CC(CC(C3)C1)C2` (stereo not shown) [Compound 15e, 1-((3r,5r,7r)-adamantan-1-yl)-2-(6-fluoro-5H-imidazo[5,1-a]isoindol-5-yl)ethanol] was tested. Which IC50 (human IDO enzyme (IDO1)) did it give?
Answer: < 100 nM

Question: What about the IC50 (human TDO enzyme) of the same molecule?
Answer: < 500 nM

Question: For `OC(CC1c2c(F)cccc2-c2cncn21)C12C[C@@H]3C[C@@H](CC(O)(C3)C1)C2` (stereo partly drawn) [Compound 15d-2, (1s,3r,5R,7S)-3-(2-(6-fluoro-5H-imidazo[5,1-a]isoindol-5-yl)-1-hydroxyethyl)adamantan-1-ol], which IC50 (human IDO enzyme (IDO1)) is on record?
Answer: > 500 nM

Question: `OC(CC1c2c(F)cccc2-c2cncn21)C1C2CC3CC1CC(O)(C3)C2` [Compound 18k-1, (1s,3R,5S,7s)-4-(2-(6-fluoro-5H-imidazo[5,1-a]isoindol-5-yl)-1-hydroxyethyl)adamantan-1-ol] was tested. Which IC50 (human IDO enzyme (IDO1)) did it give?
Answer: < 500 nM

Question: For `OC(CC1c2c(F)cccc2-c2cncn21)C12C[C@@H]3C[C@@H](CC(O)(C3)C1)C2` (stereo partly drawn) [Compound 15d, (1s,3r,5R,7S)-3-(2-(6-fluoro-5H-imidazo[5,1-a]isoindol-5-yl)-1-hydroxyethyl)adamantan-1-ol], which IC50 (human IDO enzyme (IDO1)) is on record?
Answer: < 100 nM

Question: What about the IC50 (human TDO enzyme) of the same molecule?
Answer: < 200 nM

Question: How did the IC50 (human IDO enzyme (IDO1)) turn out when `OC(CC1c2c(F)cccc2-c2cncn21)C12C[C@@H]3C[C@@H](CC(O)(C3)C1)C2` (stereo partly drawn) [Compound 15d-4, (1s,3r,5R,7S)-3-(2-(6-fluoro-5H-imidazo[5,1-a]isoindol-5-yl)-1-hydroxyethyl)adamantan-1-ol] was run?
Answer: > 500 nM

Question: For `OC(CC1c2c(F)cccc2-c2cncn21)C12C[C@@H]3C[C@@H](CC(O)(C3)C1)C2` (stereo partly drawn) [Compound 15d-1, (1s,3r,5R,7S)-3-(2-(6-fluoro-5H-imidazo[5,1-a]isoindol-5-yl)-1-hydroxyethyl)adamantan-1-ol], which IC50 (human IDO enzyme (IDO1)) is on record?
Answer: > 500 nM

Question: `O=[N+]([O-])c1cc(C(F)(F)F)ccc1N1CCC(C(O)CC2c3ccccc3-c3cncn32)CC1` (stereo not shown) [Compound 9, 2-(5H-imidazo[5,1-a]isoindol-5-yl)-1-(1-(2-nitro-4-(trifluoromethyl)phenyl)piperidin-4-yl)ethanol] was tested. Which IC50 (human IDO enzyme (IDO1)) did it give?
Answer: < 500 nM

Question: What about the IC50 (human TDO enzyme) of the same molecule?
Answer: < 200 nM

Question: What does the source list for `OC(CC1c2ccccc2-c2cncn21)C12CC3CC(CC(C3)C1)C2` (stereo not shown) [Compound 10, 1-((3r,5r,7r)-adamantan-1-yl)-2-(5H-imidazo[5,1-a]isoindol-5-yl)ethanol]?
Answer: IC50 (human IDO enzyme (IDO1)): < 500 nM; inhibition at 1 µM (human TDO enzyme): > 50%

Question: With `OC(C1CCCCC1)C1(C2c3ccccc3-c3cncn32)CC1` (stereo not shown) [Compound 13, (1-(5H-imidazo[5,1-a]isoindol-5-yl)cyclopropyl)(cyclohexyl) methanol] as the molecule, how does the inhibition at 1 µM (human TDO enzyme) read?
Answer: > 50%

Question: Which IC50 (human IDO enzyme (IDO1)) does the source give for `OC(CC1c2c(F)cccc2-c2cncn21)C12CCC(O)(CC1)CC2` (stereo not shown) [Compound 16, 4-(2-(6-fluoro-5H-imidazo[5,1-a]isoindol-5-yl)-1-hydroxyethyl)bicyclo[2.2.2]octan-1-ol] here?
Answer: < 100 nM

Question: What about the IC50 (human TDO enzyme) of the same molecule?
Answer: < 200 nM

Question: How did the IC50 (human IDO enzyme (IDO1)) turn out when `OC(CC1c2c(F)cccc2-c2cncn21)C12C[C@@H]3C[C@@H](CC(O)(C3)C1)C2` (stereo partly drawn) [Compound 15d-3, (1s,3r,5R,7S)-3-(2-(6-fluoro-5H-imidazo[5,1-a]isoindol-5-yl)-1-hydroxyethyl)adamantan-1-ol] was run?
Answer: < 100 nM

Question: For `OC(CC1c2ccccc2-c2cncn21)C12C[C@@H]3C[C@@H](CC(O)(C3)C1)C2` (stereo partly drawn) [Compound 14f, (1s,3r,5R,7S)-3-(1-hydroxy-2-(5H-imidazo[5,1-a]isoindol-5-yl)ethyl)adamantan-1-ol], which IC50 (human IDO enzyme (IDO1)) is on record?
Answer: < 100 nM

Question: And the IC50 (human TDO enzyme)?
Answer: < 200 nM

Question: How did the IC50 (human IDO enzyme (IDO1)) turn out when `OC(CC1c2c(F)cccc2-c2cncn21)C1C2CC3CC1CC(O)(C3)C2` [Compound 18k-2, (1s,3R,5S,7s)-4-(2-(6-fluoro-5H-imidazo[5,1-a]isoindol-5-yl)-1-hydroxyethyl)adamantan-1-ol] was run?
Answer: < 100 nM

Question: `OC1[C@@H]2CC3C[C@H]1CC(C(O)CC1c4c(F)cccc4-c4cncn41)(C3)C2` (stereo partly drawn) [Compound 17, (1R,2s,3S,5s,7s)-5-(2-(6-fluoro-5H-imidazo[5,1-a]isoindol-5-yl)-1-hydroxyethyl)adamantan-2-ol] was tested. Which IC50 (human IDO enzyme (IDO1)) did it give?
Answer: < 100 nM

Question: And the IC50 (human TDO enzyme)?
Answer: < 200 nM

Question: How did the inhibition at 0.5 µM (human IDO enzyme (IDO1)) turn out when `OC(CC1c2ccccc2-c2cncn21)C1CCN(c2ccccc2)CC1` (stereo not shown) [Compound 1, 2-(5H-imidazo[5,1-a]isoindol-5-yl)-1-(1-phenylpiperidin-4-yl)ethanol] was run?
Answer: > 50%
